Experimental data from patent publication US12410171B2, “Tropomyosin receptor kinase (TRK) degradation compounds and methods of use” (Cullgen (Shanghai), Inc., priority 2020, dated 2025).
Like-named read-outs stand apart in the source and are kept apart here.

Target: T1, TPM3-TRKA fusion protein (Homo sapiens, UniProt P04629)
T1 construct: The resulted chimeric proteins always retain the kinase domain of TRK proteins; TPM3 (fusion partner, N-terminal part of tropomyosin alpha-3, P06753); endogenous in cells; host or cells: KM12 colon cancer cells; the other entry of the earlier key: TPM3 (P06753, Tropomyosin alpha-3 chain)
T1 sequence (P04629 with tags, fused parts or gaps): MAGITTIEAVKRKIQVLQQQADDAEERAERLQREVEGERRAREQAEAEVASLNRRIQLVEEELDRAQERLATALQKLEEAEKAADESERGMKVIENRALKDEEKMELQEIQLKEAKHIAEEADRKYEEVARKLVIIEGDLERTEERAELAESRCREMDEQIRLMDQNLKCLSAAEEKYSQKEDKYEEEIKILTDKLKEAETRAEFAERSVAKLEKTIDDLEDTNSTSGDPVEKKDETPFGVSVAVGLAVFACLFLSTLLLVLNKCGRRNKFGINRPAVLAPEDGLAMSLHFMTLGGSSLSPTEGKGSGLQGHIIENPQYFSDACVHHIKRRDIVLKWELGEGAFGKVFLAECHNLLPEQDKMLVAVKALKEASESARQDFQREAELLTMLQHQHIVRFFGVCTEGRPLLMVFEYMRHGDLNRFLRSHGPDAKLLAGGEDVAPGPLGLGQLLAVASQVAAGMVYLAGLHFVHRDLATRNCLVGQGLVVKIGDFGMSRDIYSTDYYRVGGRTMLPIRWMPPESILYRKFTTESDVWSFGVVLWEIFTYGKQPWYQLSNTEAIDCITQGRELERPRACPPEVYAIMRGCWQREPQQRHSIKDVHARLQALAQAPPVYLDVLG
Assay: TPM3-TRKA fusion protein levels in KM12 cells (Western blot)
Type: cell-based
Conditions: read-out: Degradation (at 10 nM)
Summary of the method: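 KM12 colon cancer cells were treated with DMSO or compounds at 0.1–100 nM, 0.4–30 nM or other stated concentrations for 4, 8–16 or 16 h. RIPA lysates were BCA-normalized and resolved by SDS-PAGE. TPM3-TRKA was detected by chemiluminescent Western blot, with bands quantified by densitometry.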

[1] = 16 h, TPM3-TRKA degradation in KM12 cells at 10 nM compound, category of percentage degradation

SMILES	percent degradation of TPM3-TRKA protein at 0.01 µM [1] [%]	percent degradation of TPM3-TRKA protein at 0.01 µM (KM12, 16 h) [%]
O=C1CCC(N2C(=O)c3ccc(CCCN4CCN(c5cccc(-c6cnc7ccc(N8CCC[C@@H]8c8cccc(F)c8)nn67)n5)CC4)cc3C2=O)C(=O)N1 (stereo partly drawn) [TR-172, 2-(2,6-dioxopiperidin-3-yl)-5-(3-(4-(6-(6-((R)-2˜ (3-fluorophenyl)pyrrolidin-1-yl)imidazo[1,2-b]pyridazin-3-yl)pyridin-2-yl)piperazin-1-yl)propyl)isoindoline-1,3-dione]	–	> 80
O=C1CCC(N2C(=O)c3ccc(OCCN4CCN(c5cccc(-c6cnc7ccc(N8CCC[C@@H]8c8cccc(F)c8)nn67)n5)CC4)cc3C2=O)C(=O)N1 (stereo partly drawn) [TR-173, 2˜ (2,6-dioxopiperidin-3-yl)-5-(2-(4-(6-(6-((R)-2-(3-fluorophenyl)pyrrolidin-1-yl)imidazo[1,2-b]pyridazin-3-yl)pyridin-2-yl)piperazin-1-yl)ethoxy) isoindoline-1,3-dione]	–	> 80
O=C1CCC(N2C(=O)c3ccc(N4CCC(N5CCN(c6cccc(-c7cnc8ccc(N9CCC[C@@H]9c9cccc(F)c9)nn78)n6)CC5)CC4)cc3C2=O)C(=O)N1 (stereo partly drawn) [TR-182, 2-(2,6-dioxopiperidin-3-yl)-5-(4-(4-(6-(6-((R)-2-(3-fluorophenyl)pyrrolidin-1-yl)imidazo[1,2-b]pyridazin-3-yl)pyridin-2-yl)piperazin-1-yl)piperidin-1-yl)isoindoline-1,3-dione]	–	> 80
O=C1CCC(N2C(=O)c3ccc(N4CC(N5CCN(c6cccc(-c7cnc8ccc(N9CCC[C@@H]9c9cccc(F)c9)nn78)n6)CC5)C4)cc3C2=O)C(=O)N1 (stereo partly drawn) [TR-184, 2-(2,6-dioxopiperidin-3-yl)-5-(3-(4-(6-(6-((R)-2-(3-fluorophenyl)pyrrolidin-1-yl)imidazo[1,2-b]pyridazin-3-yl)pyridin-2-yl)piperazin-1-yl)azetidin-1-yl)isoindoline-1,3-dione]	–	> 80
O=C1CCC(N2Cc3cc(C#CCN4CCN(c5cccc(-c6cnc7ccc(N8CCC[C@@H]8c8cccc(F)c8)nn67)n5)CC4)ccc3C2=O)C(=O)N1 (stereo partly drawn) [TR-188, 3-(5-(3-(4-(6-(6-((R)-2-(3-Fluorophenyl)pyrrolidin-1-yl)imidazo[1,2-b]pyridazin-3-yl)pyridin-2-yl)piperazin-1-yl)prop-1-yn-1-yl)-1-oxoisoindolin-2-yl)piperidine-2,6-dione]	> 80	–
O=C1CCC(N2Cc3ccc(NCC(=O)N4CCN(c5cccc(-c6cnc7ccc(N8CCC[C@@H]8c8cccc(F)c8)nn67)n5)CC4)cc3C2=O)C(=O)N1 (stereo partly drawn) [TR-189, 3-(6-((2-(4-(6-(6-((R)-2-(3-fluorophenyl)pyrrolidin-1-yl)imidazo[1,2-b]pyridazin-3-yl)pyridin-2-yl)piperazin-1-yl)-2-oxoethyl)amino)-1-oxoisoindolin-2-yl)piperidine-2,6-dione]	> 80	–
O=C1CCC(N2Cc3ccc(C#CC(=O)N4CCN(c5cccc(-c6cnc7ccc(N8CCC[C@@H]8c8cccc(F)c8)nn67)n5)CC4)cc3C2=O)C(=O)N1 (stereo partly drawn) [TR-202, 3-(6-(3-(4-(6-(6-((R)-2-(3-Fluorophenyl)pyrrolidin-1-yl)imidazo[1,2-b]pyridazin-3-yl)pyridin-2-yl)piperazin-1-yl)-3-oxoprop-1-yn-1-yl)-1-oxoisoindolin-2-yl)piperidine-2,6-dione]	50 to 80	–
O=C1CCC(N2Cc3cc(C#CC(=O)N4CCN(c5cccc(-c6cnc7ccc(N8CCC[C@@H]8c8cccc(F)c8)nn67)n5)CC4)ccc3C2=O)C(=O)N1 (stereo partly drawn) [TR-203, 3-(5-(3-(4-(6-(6-((R)-2-(3-fluorophenyl)pyrrolidin-1-yl)imidazo[1,2-b]pyridazin-3-yl)pyridin-2-yl)piperazin-1-yl)-3-oxoprop-1-yn-1-yl)-1-oxoisoindolin-2-yl)piperidine-2,6-dione]	50 to 80	–
O=C1CCC(N2Cc3cc(C#CC4CCN(c5cccc(-c6cnc7ccc(N8CCC[C@@H]8c8cccc(F)c8)nn67)n5)CC4)ccc3C2=O)C(=O)N1 (stereo partly drawn) [TR-208, 3-(5-((1-(6-(6-((R)-2-(3-fluorophenyl)pyrrolidin-1-yl)imidazo[1,2-b]pyridazin-3-yl)pyridin-2-yl)piperidin-4-yl)ethynyl)-1-oxoisoindolin-2-yl)piperidine-2,6-dione]	50 to 80	–
O=C1CCC(N2Cc3cc(NCC4CN(c5cccc(-c6cnc7ccc(N8CCC[C@@H]8c8cccc(F)c8)nn67)n5)C4)ccc3C2=O)C(=O)N1 (stereo partly drawn) [TR-210, 3-(5-(((1-(6-(6-((R)-2-(3-Fluorophenyl)pyrrolidin-1-yl)imidazo[1,2-b]pyridazin-3-yl)pyridin-2-yl)azetidin-3-yl)methyl)amino)-1-oxoisoindolin-2-yl)piperidine-2,6-dione]	50 to 80	–
Cn1c(=O)n(C2CCC(=O)NC2=O)c2cccc(NCCCN3CCN(c4cccc(-c5cnc6ccc(N7CCC[C@@H]7c7cccc(F)c7)nn56)n4)CC3)c21 (stereo partly drawn) [TR-217, 3-[4-[3-[4-[6-[6-[(2R)-2-(3-Fluorophenyl)pyrrolidin-1-yl]imidazo[1,2-b]pyridazin-3-yl]-2-pyridyl]piperazin-1-yl]propylamino]-3-methyl-2-oxo-benzimidazol-1-yl]piperidine-2,6-dione]	> 80	–

Further lines, with some results ahead:

percent degradation of TPM3-TRKA protein at 0.01 µM [1] [%]	SMILES	percent degradation of TPM3-TRKA protein at 0.01 µM (KM12, 16 h) [%]
> 80	O=C1CCC(N2C(=O)c3ccc(NCCCN4CCN(c5cccc(-c6cnc7ccc(N8CCC[C@@H]8c8cccc(F)c8)nn67)n5)CC4)cc3C2=O)C(=O)N1 (stereo partly drawn) [TR-171, 2˜ (2,6-Dioxopiperidin-3-yl)-5-((3-(4-(6-(6-((R)-2-(3-fluorophenyl)pyrrolidin-1-yl)imidazo[1,2-b]pyridazin-3-yl)pyridin-2-yl)piperazin-1-yl)propyl)amino) isoindoline-1,3-dione]	–
> 80	O=C1CCC(N2C(=O)c3ccc(NCCOCCN4CCN(c5cccc(-c6cnc7ccc(N8CCC[C@@H]8c8cccc(F)c8)nn67)n5)CC4)cc3C2=O)C(=O)N1 (stereo partly drawn) [TR-176, 2-(2,6-Dioxopiperidin-3-yl)-5-((2-(2-(4-(6-(6-((R)-2-(3-fluorophenyl)pyrrolidin-1-yl)imidazo[1,2-b]pyridazin-3-yl)pyridin-2-yl)piperazin-1-yl)ethoxy)ethyl)amino) isoindoline-1,3-dione]	–
> 80	O=C1CCC(N2C(=O)c3ccc(NCCOCCOCCN4CCN(c5cccc(-c6cnc7ccc(N8CCC[C@H]8c8cccc(F)c8)nn67)n5)CC4)cc3C2=O)C(=O)N1 (stereo partly drawn) [TR-177, 2-(2,6-Dioxopiperidin-3-yl)-5-((2-(2-(2-(4-(6-(6-((S)-2-(3-fluorophenyl)pyrrolidin-1-yl)imidazo[1,2-b]pyridazin-3-yl)pyridin-2-yl)piperazin-1-yl)ethoxy)ethoxy)ethyl)amino) isoindoline-1,3-dione]	–
> 80	O=C1CCC(N2Cc3cc(CCCN4CCN(c5cccc(-c6cnc7ccc(N8CCC[C@@H]8c8cccc(F)c8)nn67)n5)CC4)ccc3C2=O)C(=O)N1 (stereo partly drawn) [TR-186, 3-(5-(3-(4-(6-(6-((R)-2-(3-fluorophenyl)pyrrolidin-1-yl)imidazo[1,2-b]pyridazin-3-yl)pyridin-2-yl)piperazin-1-yl)propyl)-1-oxoisoindolin-2-yl)piperidine-2,6-dione]	–
> 80	O=C1CCC(N2Cc3cc(NCCN4CCN(c5cccc(-c6cnc7ccc(N8CCC[C@@H]8c8cccc(F)c8)nn67)n5)CC4)ccc3C2=O)C(=O)N1 (stereo partly drawn) [TR-191, 3-(5-((2-(4-(6-(6-((R)-2-(3-fluorophenyl)pyrrolidin-1-yl)imidazo[1,2-b]pyridazin-3-yl)pyridin-2-yl)piperazin-1-yl)ethyl)amino)-1-oxoisoindolin-2-yl)piperidine-2,6-dione]	–
50 to 80	O=C1CCC(N2Cc3ccc(NCCN4CCN(c5cccc(-c6cnc7ccc(N8CCC[C@@H]8c8cccc(F)c8)nn67)n5)CC4)cc3C2=O)C(=O)N1 (stereo partly drawn) [TR-196, 3-(6-((2-(4-(6-(6-((R)-2-(3-fluorophenyl)pyrrolidin-1-yl)imidazo[1,2-b]pyridazin-3-yl)pyridin-2-yl)piperazin-1-yl)ethyl)amino)-1-oxoisoindolin-2-yl)piperidine-2,6-dione]	–
> 80	O=C1CCC(N2C(=O)c3ccc(CCN4CCN(c5cccc(-c6cnc7ccc(N8CCC[C@@H]8c8cccc(F)c8)nn67)n5)CC4)cc3C2=O)C(=O)N1 (stereo partly drawn) [TR-204, 2-(2,6-dioxopiperidin-3-yl)-5-(2-(4-(6-(6-((R)-2-(3-fluorophenyl)pyrrolidin-1-yl)imidazo[1,2-6]pyridazin-3-yl)pyridin-2-yl)piperazin-1-yl)ethyl)isoindoline-1,3-dione]	–
< 50	COc1ccc(CN(CCN2CCN(c3cccc(-c4cnc5ccc(N6CCC[C@@H]6c6cccc(F)c6)nn45)n3)CC2)c2ccc3c(c2)C(=O)N(C2CCC(=O)NC2=O)C3=O)cc1 (stereo partly drawn) [TR-214, 2-(2,6-Dioxo-3-piperidyl)-5-(2-(4-(6-(6-((2R)-2-(3-fluorophenyl)pyrrolidin-1-yl)imidazo[1,2-b]pyridazin-3-yl)-2-pyridyl)piperazin-1-yl)ethyl-((4-methoxyphenyl)methyl)amino) isoindoline-1,3-dione]	–
> 80	Cn1c(=O)n(C2CCC(=O)NC2=O)c2cccc(NCCN3CCN(c4cccc(-c5cnc6ccc(N7CCC[C@@H]7c7cccc(F)c7)nn56)n4)CC3)c21 (stereo partly drawn) [TR-216, 3-[4-[2-[4-[6-[6-[(2R)-2-(3-Fluorophenyl)pyrrolidin-1-yl]imidazo[1,2-b]pyridazin-3-yl]-2-pyridyl]piperazin-1-yl]ethylamino]-3-methyl-2-oxo-benzimidazol-1-yl]piperidine-2,6-dione]	–
